Source: US11046694B2, “Compounds and methods for treating bacterial infections” (Entasis Therapeutics, Inc., priority 2018, dated 2021)
Where a name gives a salt, the structure may show the parent alone.

Experiments:
[1] = system: E. coli (ATCC25922); test: MIC against E. coli; conditions: Escherichia coli, ATCC25922, read-out: E. coli MIC (ATCC25922) (mg/L)
[2] = target: P. aeruginosa PBP3 (Pseudomonas aeruginosa, UniProt G3XD46); assay type: biochemical; conditions: P. aeruginosa PBP3 60 nM, BOCILLIN FL 30 nM, pH 7.0
[3] = system: P. aeruginosa WT (PAO1); test: MIC, CLSI broth microdilution, P. aeruginosa; assay type: cell-based; conditions: Pseudomonas aeruginosa, PAO1; CLSI broth microdilution; read-out: P. aeruginosa WT (PAO1) MIC
[4] = target: T1, P. aeruginosa PBP2 (Pseudomonas aeruginosa, UniProt Q9X6V3); assay type: biochemical; conditions: P. aeruginosa PBP2 300 nM, BOCILLIN FL 30 nM, pH 6.2
T1 sequence (Q9X6V3 1-646): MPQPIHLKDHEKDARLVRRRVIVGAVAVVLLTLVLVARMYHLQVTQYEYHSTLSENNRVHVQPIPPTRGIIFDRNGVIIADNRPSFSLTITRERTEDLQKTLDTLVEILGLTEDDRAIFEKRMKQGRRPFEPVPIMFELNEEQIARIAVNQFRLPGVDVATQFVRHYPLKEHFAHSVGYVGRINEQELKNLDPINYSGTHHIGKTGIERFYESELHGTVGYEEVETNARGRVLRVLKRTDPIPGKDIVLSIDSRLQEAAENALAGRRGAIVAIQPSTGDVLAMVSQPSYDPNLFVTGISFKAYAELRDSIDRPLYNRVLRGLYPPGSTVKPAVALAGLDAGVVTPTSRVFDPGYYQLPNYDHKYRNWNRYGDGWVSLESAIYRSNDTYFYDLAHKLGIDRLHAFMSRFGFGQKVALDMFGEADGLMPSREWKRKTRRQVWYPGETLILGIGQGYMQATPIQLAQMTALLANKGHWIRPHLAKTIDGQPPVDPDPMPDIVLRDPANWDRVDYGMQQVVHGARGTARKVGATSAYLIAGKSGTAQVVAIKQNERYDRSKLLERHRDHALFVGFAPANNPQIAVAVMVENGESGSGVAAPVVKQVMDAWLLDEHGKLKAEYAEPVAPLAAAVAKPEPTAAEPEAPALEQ

[5] = system: A. baumannii (ARC3495); test: MIC against A. baumannii; conditions: Acinetobacter baumannii, read-out: A. baumannii MIC (ARC3495) (mg/L)
[6] = system: K. pneumoniae (ATCC700603); test: MIC against K. pneumoniae; conditions: Klebsiella pneumoniae, ATCC700603, read-out: K. pneumoniae MIC (ATCC700603)
[7] = target: P. aeruginosa PBP1a (Pseudomonas aeruginosa, UniProt Q07806); assay type: biochemical; conditions: P. aeruginosa PBP1a 60 nM, BOCILLIN FL 30 nM, pH 7.0
Chain of P. aeruginosa PBP1a (Q07806 whole entry): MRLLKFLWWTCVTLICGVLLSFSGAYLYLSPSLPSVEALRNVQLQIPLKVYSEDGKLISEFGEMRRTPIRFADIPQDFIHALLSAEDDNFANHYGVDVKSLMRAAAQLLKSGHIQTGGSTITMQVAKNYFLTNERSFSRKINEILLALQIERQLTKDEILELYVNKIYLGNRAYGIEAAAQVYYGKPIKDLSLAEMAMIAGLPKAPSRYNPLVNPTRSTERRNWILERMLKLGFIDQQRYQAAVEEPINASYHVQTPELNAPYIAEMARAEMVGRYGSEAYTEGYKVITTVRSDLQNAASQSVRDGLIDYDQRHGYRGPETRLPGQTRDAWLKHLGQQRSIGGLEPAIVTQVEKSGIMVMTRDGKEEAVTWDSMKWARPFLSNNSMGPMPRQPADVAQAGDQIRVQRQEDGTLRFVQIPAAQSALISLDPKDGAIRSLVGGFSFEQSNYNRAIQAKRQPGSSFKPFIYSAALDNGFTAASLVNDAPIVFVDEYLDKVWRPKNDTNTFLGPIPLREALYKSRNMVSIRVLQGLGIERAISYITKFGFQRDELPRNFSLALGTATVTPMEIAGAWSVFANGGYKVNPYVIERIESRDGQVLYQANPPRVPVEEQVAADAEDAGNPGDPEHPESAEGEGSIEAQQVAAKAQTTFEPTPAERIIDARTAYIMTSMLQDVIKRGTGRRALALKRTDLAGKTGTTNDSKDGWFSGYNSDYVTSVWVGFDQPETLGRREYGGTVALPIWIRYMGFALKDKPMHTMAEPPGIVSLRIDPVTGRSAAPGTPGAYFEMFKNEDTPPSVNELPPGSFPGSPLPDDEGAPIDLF

Chain of P. aeruginosa PBP3 (G3XD46 whole entry): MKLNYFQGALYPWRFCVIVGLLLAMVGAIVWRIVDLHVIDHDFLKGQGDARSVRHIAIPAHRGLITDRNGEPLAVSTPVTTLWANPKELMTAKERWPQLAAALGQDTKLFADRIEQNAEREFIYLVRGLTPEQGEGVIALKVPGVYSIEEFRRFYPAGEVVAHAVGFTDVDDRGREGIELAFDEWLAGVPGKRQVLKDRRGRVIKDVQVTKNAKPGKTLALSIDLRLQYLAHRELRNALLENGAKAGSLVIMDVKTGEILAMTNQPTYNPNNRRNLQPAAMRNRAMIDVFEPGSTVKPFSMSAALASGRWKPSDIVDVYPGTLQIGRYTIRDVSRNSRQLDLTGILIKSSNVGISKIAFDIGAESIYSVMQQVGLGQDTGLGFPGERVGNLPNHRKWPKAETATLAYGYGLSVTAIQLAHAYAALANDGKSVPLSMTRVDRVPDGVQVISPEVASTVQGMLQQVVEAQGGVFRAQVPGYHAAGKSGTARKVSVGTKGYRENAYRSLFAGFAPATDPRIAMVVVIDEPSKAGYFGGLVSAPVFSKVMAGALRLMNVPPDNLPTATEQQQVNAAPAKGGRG

| SMILES | MIC [1] [mg/L] | PBP3 acylation rate, k(on) (M^−1 · s^−1) [2] | MIC [3] [µg/mL] | PBP2 acylation rate, k(on) (M^−1 · s^−1) [4] | MIC [5] [mg/L] | MIC [6] [µg/mL] | PBP1a acylation rate, k(on) (M^−1 · s^−1) [7] |
| --- | --- | --- | --- | --- | --- | --- | --- |
| Cn1ncc2c1[C@@H](CN)N1C[C@@H]2N(OS(=O)(=O)O)C1=O [Comparator 1, reference compound] | < 8 | * (* represents a k(on) < 100 M^−1 · s^−1) | < 8 | *** (*** represents a k(on) > 5,000 M^−1 · s^−1) | > 16 | < 8 | * (* represents a k(on) < 100 M^−1 · s^−1) |
| CNC(=O)[C@@H]1c2c(cnn2C)[C@@H]2CN1C(=O)N2OS(=O)(=O)O [Comparator 2, reference compound] | < 8 | ** (** represents a k(on) of 100 to 10,000 M^−1 · s^−1) | > 16 | * (* represents a k(on) < 100 M^−1 · s^−1) | > 16 | > 16 | * (* represents a k(on) < 100 M^−1 · s^−1) |
| CN(C)/C(=N\O)[C@@H]1c2c(cnn2C)[C@@H]2CN1C(=O)N2OS(=O)(=O)O [Example 2, (4R,8S)-8-((Z)—N′-hydroxy-N,N-dimethylcarbamimidoyl)-1-methyl-6-oxo-4,8-dihydro-1H-4,7-methanopyrazolo[3,4-e][1,3]diazepin-5(6H)-yl hydrogen sulfate] | 8 to 16 | *** (*** represents a k(on) > 10,000 M^−1 · s^−1) | > 16 | * (* represents a k(on) < 100 M^−1 · s^−1) | 8 to 16 | 8 to 16 | ** (** represents a k(on) of 100 to 10,000 M^−1 · s^−1) |
| Cn1ncc2c1[C@@H](/C(N)=N/O)N1C[C@@H]2N(OS(=O)(=O)[O-])C1=O.[Na+] [Example 3, Sodium (4R,8S)-8-((Z)—N′-hydroxycarbamimidoyl)-1-methyl-6-oxo-4,8-dihydro-1H-4,7-methanopyrazolo[3,4-e][1,3]diazepin-5(6H)-yl sulfate] | < 8 | ** (** represents a k(on) of 100 to 10,000 M^−1 · s^−1) | > 16 | * (* represents a k(on) < 100 M^−1 · s^−1) | > 16 | < 8 | * (* represents a k(on) < 100 M^−1 · s^−1) |
| CN/C(=N\OC)[C@@H]1c2c(cnn2C)[C@@H]2CN1C(=O)N2OS(=O)(=O)O [Example 4, (4R,8S)-8-((Z)—N′-methoxy-N-methylcarbamimidoyl)-1-methyl-6-oxo-4,8-dihydro-1H-4,7-methanopyrazolo[3,4-e][1,3]diazepin-5(6H)-yl hydrogen sulfate] | < 8 | *** (*** represents a k(on) > 10,000 M^−1 · s^−1) | > 16 | * (* represents a k(on) < 100 M^−1 · s^−1) | > 16 | > 16 | ** (** represents a k(on) of 100 to 10,000 M^−1 · s^−1) |
| Cn1ncc2c1[C@@H](C1=NOC(CO)C1)N1C[C@@H]2N(OS(=O)(=O)O)C1=O (stereo partly drawn) [Example 38, (4R,8S)-8-(5-(hydroxymethyl)-4,5-dihydroisoxazol-3-yl)-1-methyl-6-oxo-4,8-dihydro-1H-4,7-methanopyrazolo[3,4-e][1,3]diazepin-5(6H)-yl hydrogen sulfate] | 8 to 16 | * (* represents a k(on) < 100 M^−1 · s^−1) | > 16 | * (* represents a k(on) < 100 M^−1 · s^−1) | > 16 | > 16 | * (* represents a k(on) < 100 M^−1 · s^−1) |
| CN/C(=N\O)[C@@H]1c2c(cnn2CCN)[C@@H]2CN1C(=O)N2OS(=O)(=O)O [Example 47, (4R,8S)-1-(2-aminoethyl)-8-((Z)—N′-hydroxy-N-methylcarbamimidoyl)-6-oxo-4,8-dihydro-1H-4,7-methanopyrazolo[3,4-e][1,3]diazepin-5(6H)-yl hydrogen sulfate] | < 8 | *** (*** represents a k(on) > 10,000 M^−1 · s^−1) | < 8 | * (* represents a k(on) < 100 M^−1 · s^−1) | < 8 | < 8 | ** (** represents a k(on) of 100 to 10,000 M^−1 · s^−1) |
| Cn1ncc2c1[C@@H](/C(=N/O)NCc1nc(N)cs1)N1C[C@@H]2N(OS(=O)(=O)O)C1=O [Example 51, (4R,8S)-8-((Z)—N-((4-aminothiazol-2-yl)methyl)-N′-hydroxycarbamimidoyl)-1-methyl-6-oxo-4,8-dihydro-1H-4,7-methanopyrazolo[3,4-e][1,3]diazepin-5(6H)-yl hydrogen sulfate] | < 8 | ** (** represents a k(on) of 100 to 10,000 M^−1 · s^−1) | > 16 | * (* represents a k(on) < 100 M^−1 · s^−1) | > 16 | > 16 | ** (** represents a k(on) of 100 to 10,000 M^−1 · s^−1) |
| Cn1ncc2c1[C@@H](/C(=N/OC(=O)NC(C)(C)C(=O)O)NCc1nc(N)cs1)N1C[C@@H]2N(OS(=O)(=O)O)C1=O [Example 52, (Z)-1-(4-aminothiazol-2-yl)-8,8-dimethyl-3-((4R,8S)-1-methyl-6-oxo-5-(sulfooxy)-4,5,6,8-tetrahydro-1H-4,7-methanopyrazolo[3,4-e][1,3]diazepin-8-yl)-6-oxo-5-oxa-2,4,7-triazanon-3-en-9-oic acid] | < 8 | ** (** represents a k(on) of 100 to 10,000 M^−1 · s^−1) | > 16 | * (* represents a k(on) < 100 M^−1 · s^−1) | > 16 | > 16 | ** (** represents a k(on) of 100 to 10,000 M^−1 · s^−1) |
| Cn1ncc2c1[C@@H](c1noc(=O)n1Cc1nc(N)cs1)N1C[C@@H]2N(OS(=O)(=O)O)C1=O [Example 53, (4R,8S)-8-(4-((4-aminothiazol-2-yl)methyl)-5-oxo-4,5-dihydro-1,2,4-oxadiazol-3-yl)-1-methyl-6-oxo-4,8-dihydro-1H-4,7-methanopyrazolo[3,4-e][1,3]diazepin-5(6H)-yl hydrogen sulfate] | < 8 | ** (** represents a k(on) of 100 to 10,000 M^−1 · s^−1) | > 16 | * (* represents a k(on) < 100 M^−1 · s^−1) | > 16 | > 16 | ** (** represents a k(on) of 100 to 10,000 M^−1 · s^−1) |
| CCN1CCN(C(=O)NC/C(=N\O)[C@@H]2c3c(cnn3C)[C@@H]3CN2C(=O)N3OS(=O)(=O)O)C(=O)C1=O [Example 55, (4R,8S)-8-((E)-2-(4-ethyl-2,3-dioxopiperazine-1-carboxamido)-1-(hydroxyimino)ethyl)-1-methyl-6-oxo-4,8-dihydro-1H-4,7-methanopyrazolo[3,4-e][1,3]diazepin-5(6H)-yl hydrogen sulfate] | < 8 | * (* represents a k(on) < 100 M^−1 · s^−1) | > 16 | * (* represents a k(on) < 100 M^−1 · s^−1) | > 16 | > 16 | * (* represents a k(on) < 100 M^−1 · s^−1) |
